Measured values from patent US9744178B2, “Respirable agglomerates of porous carrier particles and micronized drug” (Novartis AG, priority 2013, dated 2017).

Legend:
[1] = Delivered dose uniformity from Concept1 dry powder inhaler; format: physicochemical; settings: each drug in respirable agglomerates Lot 11015A-7-6, size 3 hypromellose capsules, Concept1, 60 L/min, 2 L, on filter, RP-HPLC
Method: “Emitted Dose” or “ED” as used herein refers to an indication of the delivery of dry powder from an inhaler device after an actuation or dispersion event from a powder unit. ED is defined as the ratio of the dose delivered by an inhaler device to the nominal or metered dose. The ED is an experimentally determined parameter, and may be determined using an in vitro device set up which mimics patient dosing. It is sometimes also referred to as the Delivered Dose (DD). The ED is determined using a drug specific method such as high pressure liquid chromatography.
The bulk powder was filled into size 3 hypromellose capsules. The capsules were then individually filled into a Concept1 dry powder Inhaler (as described herein). The Concept1 Inhaler is a low resistance, capsule-based dry powder Inhaler. The device was emptied at a flow rate of 60 L/min and an inhaled volume of 2 L onto a filter. The mass of each Individual drug on the filter was quantitated by RP-HPLC. The total mass of powder on the filter was also determined gravimetrically.

[2] = Physical form of indacaterol acetate by X-ray powder diffraction; format: physicochemical; settings: for Physical stability of the salt form in water: suspended in water / aqueous feedstock to be spray-dried, acetate
Method: In the process of the present invention, an ordered mixture of micronized indacaterol acetate crystals and small porous particles are created by suspending the particles in a liquid perfluorocarbon, and then removing the liquid in a drying process. The physical form of the indacaterol acetate drug substance can be determined by X-ray powder diffraction (XRPD).
The pattern is dominated by the characteristic phospholipid peak at 20=21°. […] Peaks characteristic of indacaterol free base are not present.

[3] = Particle size (x50, x90) of micronized drug crystals; format: physicochemical; settings: micronized drug crystals used in the respirable agglomerates
Method: “Mass median diameter” or “MMD” or “×50” as used herein means the median diameter of a plurality of particles, typically in a polydisperse particle population, i.e., consisting of a range of particle sizes. MMD values as reported herein are determined by laser diffraction (Sympatec Helos, Clausthal-Zellerfeld, Germany), unless the context indicates otherwise.
An MMD or an ×50 (particle size distribution wherein 50% of the particles are sized smaller) of the micronized active ingredients should be less than about 3 micron (μm), preferably less than about 2 μm, or 1 μm. In embodiments of the invention, an ×50 is about 0.1-3 μm. An ×90 (particle size distribution wherein 90% of the particles are sized smaller) should be less than 7 μm, preferably less than 5 μm, or 3 μm.

β2-adrenoceptor = β2-adrenoceptor (Homo sapiens, UniProt P07550); settings: cited from earlier work
β2-adrenoceptor, sequence (P07550 whole entry, species assumed): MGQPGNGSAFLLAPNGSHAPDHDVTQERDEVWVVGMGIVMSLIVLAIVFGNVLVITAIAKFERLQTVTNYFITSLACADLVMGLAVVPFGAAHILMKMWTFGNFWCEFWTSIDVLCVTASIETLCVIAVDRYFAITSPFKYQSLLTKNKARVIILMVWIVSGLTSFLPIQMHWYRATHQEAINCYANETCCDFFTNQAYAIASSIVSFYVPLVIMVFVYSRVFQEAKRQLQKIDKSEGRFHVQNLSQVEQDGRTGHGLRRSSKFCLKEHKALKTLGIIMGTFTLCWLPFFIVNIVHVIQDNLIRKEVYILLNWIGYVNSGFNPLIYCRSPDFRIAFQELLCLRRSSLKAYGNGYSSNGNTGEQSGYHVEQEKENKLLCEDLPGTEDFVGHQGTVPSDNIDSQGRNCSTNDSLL

Compound	Mean delivered dose (% nominal) [1]	Physical form after dispersion in PFOB ([2]; suspended in perfluorooctyl bromide, XRPD)	Physical stability of the salt form in water [2]	Physical stability of the salt form in water ([2]; listed as Indacaterol acetate)	×50 [3]	×90 [3]	Duration of action (β2-adrenoceptor)	Onset of action (β2-adrenoceptor)
CC(=O)O.CCc1cc2c(cc1CC)CC(NC[C@H](O)c1ccc(O)c3[nH]c(=O)ccc13)C2 [indacaterol acetate, (R)-5-[2-(5,6-diethyl-indan-2-ylamino)-1-hydroxyethyl]-8-hydroxy-1H-quinolin-2-one acetate]	83.5 % nominal	salt form of the drug is maintained	rapidly disproportionates to form indacaterol free base and acetic acid	rapidly disproportionating to form indacaterol free base and acetic acid	1.63 μm	3.08 μm	–	–
C[N+]1(C)CCC(OC(=O)C(O)(c2ccccc2)C2CCCC2)C1.[Br-] (centres unmarked) [Glycopyrronium bromide, 3-[(cyclopentyl-hydroxyphenyl-acetyl)oxy]-1,1-dimethylpyrrolidinium bromide]	82.1 % nominal	–	–	–	2.96 μm	6.52 μm	–	–
CCc1cc2c(cc1CC)CC(NC[C@H](O)c1ccc(O)c3[nH]c(=O)ccc13)C2 [indacaterol, (R)-5-[2-(5,6-diethyl-indan-2-ylamino)-1-hydroxyethyl]-8-hydroxy-1H-quinolin-2-one]	–	–	–	–	–	–	over 24 hours	about 10 minutes
C[C@@H]1C[C@H]2[C@@H]3CCC4=CC(=O)C=C[C@]4(C)[C@@]3(Cl)[C@@H](O)C[C@]2(C)[C@@]1(OC(=O)c1ccco1)C(=O)CCl [mometasone furoate, (11β,16α)-9,21-dichloro-17-[(2-furanylcarbonyl)oxy]-11-hydroxy-16-methylpregna-1,4-diene-3,20-dione]	84.8 % nominal	–	–	–	1.22 μm	2.45 μm	–	–
